Assay results published in patent US20070048372A1, “Method for treating non-inflammatory osteoarthritic pain” (SRZ Properties, Inc., priority 2005, published 2007).
“Also recorded” adds a separate entry of the source.

Legend:
[1] = tested on: rat formalin paw test (late phase); test: Rat formalin paw test (late phase): number of flinches and licking time; format: in vivo, rat (Rj: Wistar (Han)); details: Example 7
Procedure: Rats were given an intraplantar injection of 5% formalin (50 μl) into the posterior left paw. This treatment induces a recognizable flinching and licking response of the affected paw in control animals. The number of flinches was counted for 15 minutes, beginning 20 minutes after injection of formalin. The time spent licking the affected paw was also recorded.
Male Rj: Wistar (Han) rats, 10 per group, weighing 100-130 g at the beginning of the experiments were studied per group. The test was performed blind.
Lacosamide (20 mg/kg), gabapentin (50 and 100 mg/kg), combinations of lacosamide (20 mg/kg) with gabapentin (50 and 100 mg/kg), and vehicle were administered i.p. 10 minutes before injection of formalin.
Lacosamide (10 and 20 mg/kg), morphine (2 and 4 mg/kg), combinations of lacosamide (10 and 20 mg/kg) with morphine (2 and 4 mg/kg), and vehicle were administered i.p. 10 minutes before injection of formalin.
Lacosamide (10 mg/kg), duloxetine (8 mg/kg), a combination of lacosamide (10 mg/kg) with duloxetine (8 mg/kg), and vehicle were administered i.p. 10 minutes before injection of formalin.
Lacosamide (10 and 20 mg/kg), memantine (4 and 8 mg/kg), combinations of lacosamide (10 and 20 mg/kg) with memantine (4 and 8 mg/kg), and vehicle were administered i.p. 10 minutes before injection of formalin.
Lacosamide (10 and 20 mg/kg), naproxen (8 and 16 mg/kg), combinations of lacosamide (10 and 20 mg/kg) with […] (8 and 16 mg/kg), and vehicle were administered i.p. 10 minutes before injection of formalin. Morphine (8 mg/kg) was included as a comparative treatment.

[2] = tested on: monosodium iodoacetate-induced tactile allodynia; test: Monosodium iodoacetate-induced tactile allodynia (von Frey filaments); format: in vivo, rat (Wistar); details: 30 mg/kg s.c., 60 minutes before test
[3] = tested on: monosodium iodoacetate-induced mechanical hyperalgesia; test: Monosodium iodoacetate-induced mechanical hyperalgesia (Randall-Selitto paw pressure); format: in vivo, rat (Wistar); details: 30 mg/kg s.c.
[4] = tested on: muscle pressure hyperalgesia induced by TNF; test: TNF-induced muscle pressure hyperalgesia (Randall-Selitto, withdrawal threshold to muscle pressure); format: in vivo, rat (Sprague Dawley); details: for reversal of muscular mechanical hyperalgesia (withdrawal threshold to muscle pressure): 18 h after TNF i.m., 30 to 60 minutes after drug
Procedure: (§1) Adult male Sprague Dawley rats with a body weight of 250 g to 300 g were used (supplier: Charles River, Sulzfeld, Germany). Animals were group-housed (3 animals per cage) and maintained in a room with controlled temperature (21-22° C.) and a reversed light-dark cycle (12 h/12 h) with food and water available ad libitum. All experiments were approved by the Bavarian State animal experimentation committee and carried out in accordance with its regulations.
(§2) Recombinant rat tumor necrosis factor alpha (herein referred to as TNF) was obtained from R&D Systems, Minneapolis, Minn., U.S.A. TNF was diluted in 0.9% NaCl and used in a concentration of 1 μg in 50 μl. Injections were performed in short halothane narcosis with a 30 g needle bilaterally into the gastrocnemius or into the biceps brachii muscle. All rats were used to the behavioral tests before injections and baseline values were recorded over three test days.
Mechanical withdrawal thresholds to muscle pressure were measured with an analgesimeter (Ugo Basile, Comerio, Italy). The rat was allowed to crawl into a sock which helps the rat to relax. The hind limbs were positioned such that an increasing pressure could be applied onto the gastrocnemius muscle (maximum 250 g). The pressure needed to elicit withdrawal was recorded. Means of 3 trials for each hind limb were calculated (interstimulus interval of >30 sec). Only animals with a significant TNF effect were included for further analysis.
Rats were injected with TNF into the gastrocnemius muscle at 2 pm. Eighteen hours later, rats were tested for pressure hyperalgesia pre- and post-administration of the test drug. Rats were tested for pressure hyperalgesia 30 to 60 minutes after drug administration.
(§3) The rats, initially 10 per group, were treated with either 3, 10 or 30 mg/kg lacosamide, 2 mg/kg metamizol, 30 or 100 mg/kg pregabalin, 100 mg/kg gabapentin, or the NaCl vehicle, i.p. (intraperitoneally). Volume of i.p. injections was 0.5 ml. A pilot study was performed to confirm that i.m. (intramuscular) injection of 1 μg TNF into the gastrocnemius muscle was sufficient to induce pressure hyperalgesia.
(§4) Data are shown in graphs displaying means and standard errors of the means (SEM). Pre- and post-treatment data were compared using ANOVA (analysis of variance) and a Tukey post hoc test. Means of treatment groups were compared using a one-way ANOVA and Dunnett's post hoc test. Maximal possible effects (MPE) were calculated for all types of treatment.

[5] = tested on: biceps muscle grip strength after TNF-induced muscle pain; test: Biceps muscle grip strength after TNF-induced muscle pain; format: in vivo, rat (Sprague Dawley); details: for reversal of TNF-induced reduction of grip strength: 6 h after TNF i.m., 30 to 60 minutes after drug
Procedure: as §1, §2
Grip strength of the forelimbs was tested with a digital grip force meter (DFIS series, Chatillon, Greensboro, NC, U.S.A.). The rat was positioned to grab the grid with the forelimbs and was gently pulled so that the grip strength could be recorded. Means of three trials were calculated. The effect of the TNF treatment was calculated for each animal separately and only animals with a significant TNF effect were included for further analysis.
Rats were injected with TNF into the biceps brachii muscle at 8 am. Six hours later, grip strength of the forelimbs was tested with a digital grip force meter. Test drug was administered, and grip strength was again tested after 30 to 60 minutes.
as §3, §4

With `COc1ccc2cc([C@H](C)C(=O)O)ccc2c1` [Naproxen] the “Licking time % change (a) compared with vehicle control” value ([1]; 8 mg/kg i.p. alone) was “+16% (a)”, the “Licking time (seconds) mean ± SEM” value ([1]; 8 mg/kg i.p. alone) was 222.1 ± 21.1 NS (a) seconds and the “No. of flinches % change (a) compared with vehicle control” value ([1]; 8 mg/kg i.p. alone) was “+30% (a)”. The “No. of flinches mean ± SEM” value ([1]; 8 mg/kg i.p. alone) was 148.0 ± 35.5 NS (a), the “Licking time % change (a) compared with vehicle control” value ([1]; 16 mg/kg i.p. alone) was −1% (a) and the “Licking time (seconds) mean ± SEM” value ([1]; 16 mg/kg i.p. alone) was 190.1 ± 25.4 NS (a) seconds. The “No. of flinches % change (a) compared with vehicle control” value ([1]; 16 mg/kg i.p. alone) was “+2% (a)”, the “No. of flinches mean ± SEM” value ([1]; 16 mg/kg i.p. alone) was 116.6 ± 20.7 NS (a) and the “effect on the number of flinches or the time spent licking as compared with vehicle controls” value ([1]; 8 and 16 mg/kg i.p. alone) was “did not clearly affect”.

With `O=C(O)Cc1ccccc1Nc1c(Cl)cccc1Cl` [diclofenac] the “tactile allodynia of iodoacetate-treated rats (von Frey)” value (“tactile allodynia” below) ([2]; day 3) was “had no effect”, the “tactile allodynia” value ([2]; day 7) was “had no effect” and the “tactile allodynia” value ([2]; day 14) was “had no effect”. For the same compound, the “paw pressure withdrawal threshold compared to iodoacetate/vehicle treated animals (mechanical hyperalgesia)” value ([3]; day 3) was “increase in paw pressure withdrawal threshold” and the “mechanical hyperalgesia (paw pressure withdrawal threshold)” value ([3]; day 7) was “reduced mechanical hyperalgesia”.

In the case of `Cc1c(N(C)CS(=O)(=O)[O-])c(=O)n(-c2ccccc2)n1C.[Na+]` [metamizol], the “MPE (maximal possible effect) on muscle pressure hyperalgesia, compared with vehicle” value ([4]; 2 mg/kg i.p.) is reported as “significantly different from vehicle”, the “reversal of muscular mechanical hyperalgesia (withdrawal threshold to muscle pressure)” value ([4]; 2 mg/kg i.p.) is reported as “complete reversal” and the “MPE (maximal possible effect) on biceps muscle grip strength, compared with vehicle” value ([5]; 2 mg/kg i.p.) is reported as “significantly different from vehicle”. The “reversal of TNF-induced reduction of grip strength” value ([5]; 2 mg/kg i.p.) was “significant reversal”.

With `CC(C)C[C@H](CN)CC(=O)O` [pregabalin] the “MPE (maximal possible effect) on muscle pressure hyperalgesia, compared with vehicle” value ([4]; 30 mg/kg i.p.) was “significantly different from vehicle”, the “reversal of muscular mechanical hyperalgesia (withdrawal threshold to muscle pressure)” value ([4]; 30 mg/kg i.p.) was “significant reversal” and the “MPE (maximal possible effect) on muscle pressure hyperalgesia, compared with vehicle” value ([4]; 100 mg/kg i.p.) was “significantly different from vehicle”. The “reversal of muscular mechanical hyperalgesia (withdrawal threshold to muscle pressure)” value ([4]; 100 mg/kg i.p.) was “significant reversal”, the “full reversal of the muscle hyperalgesia” value ([4]; doses tested: pregabalin 30 and 100 mg/kg, gabapentin 100 mg/kg i.p.) was “Neither pregabalin nor gabapentin led to a full reversal” and the “MPE (maximal possible effect) on biceps muscle grip strength, compared with vehicle” value ([5]; 100 mg/kg i.p.) was “significantly different from vehicle”. For the same compound, the “reversal of TNF-induced reduction of grip strength” value ([5]; 100 mg/kg i.p.) was “significant reversal; also recorded: improved grip strength”.
